Values of other authors in patent publication US20110252579A1, “METHOD FOR TREATING FABRICS” (priority 2010, published 2011).
Where a name gives a salt, the structure may show the parent alone.

What was measured:
[1] = in water
[2] = test system: typical Gram negative and positive bacteria, fungi and yeasts; conditions: level from about 0.001% to about 0.5% by weight of the usage composition

| water solubility [1] | Structure (SMILES) | antimicrobial spectrum (bacteria) | effectiveness against Gram negative and positive bacteria, fungi and yeasts [2] |
| --- | --- | --- | --- |
| about 2.67% | OCCOc1ccccc1 [2-phenoxyethanol] | – | – |
| about 2% | OCCc1ccccc1 [2-phenylethanol] | – | – |
| about 0.46% | O=[N+]([O-])C1(Br)COCOC1 [Bronidox L, 5-bromo-5-nitro-1,3-dioxane] | – | – |
| about 25% | O=[N+]([O-])C(Br)(CO)CO [Bronopol, 2-bromo-2-nitropropane-1,3-diol] | – | – |
| – | Cn1sc2c(c1=O)CCC2 [Promexal, 2-methyl-4,5-trimethylene-4-isothiazolin-3-one] | – | effective |
| – | O=c1[nH]sc2ccccc12 [Proxel, 1,2-benzisothiazolin-3-one] | – | effective |
| about 4% | OCc1ccccc1 [benzyl alcohol] | – | – |
| about 1.8% | [H]/N=C(\N/C(=N/[H])NCCCCCCNC(=N)NC(=N)Nc1ccc(Cl)cc1)Nc1ccc(Cl)cc1 [chlorhexidine diacetate salt, 1,1′-hexamethylene bis(5-(p-chlorophenyl)biguanide), reference compound] | – | – |
| about 70% | [H]/N=C(\N/C(=N/[H])NCCCCCCNC(=N)NC(=N)Nc1ccc(Cl)cc1)Nc1ccc(Cl)cc1 [chlorhexidine digluconate salt, 1,1′-hexamethylene bis(5-(p-chlorophenyl)biguanide), reference compound] | – | – |
| about 0.8% | CC(C)(O)C(Cl)(Cl)Cl [chlorobutanol, 1,1,1-Trichloro-2-methylpropan-2-ol] | – | – |

| Structure (SMILES) | water solubility [1] | antimicrobial spectrum (bacteria) | effectiveness against Gram negative and positive bacteria, fungi and yeasts [2] |
| --- | --- | --- | --- |
| CC1(C)C(=O)N(CO)C(=O)N1CO [DMDM hydantoin, 1,3-bis(hydroxymethyl)-5,5-dimethyl-2,4-imidazolidinedione] | more than 50% | mainly effective on bacteria | – |
| [Na+].[O-][n+]1ccccc1[S-] [sodium pyrithione] | about 50% | – | – |
